In brackets after ≈: the same amount, converted by molar mass. Activity calls are given as the source filed them. No cut-off for these calls is given here.
Key:
[1] = system: Candida albicans; experiment: Antifungal activity against Candida albicans SC5314 assessed as inhibition of fungal growth incubated for 24 hrs by CLSI protocol based microbroth dilution method; type: functional
[2] = system: Candida parapsilosis; experiment: Antifungal activity against Candida parapsilosis 22019 assessed as inhibition of fungal growth incubated for 24 hrs by CLSI protocol based microbroth dilution method; type: functional; conditions: Lodderomyces parapsilosis
[3] = system: Candida tropicalis; experiment: Antifungal activity against Candida tropicalis 2718 assessed as inhibition of fungal growth incubated for 24 hrs by CLSI protocol based microbroth dilution method; type: functional
[4] = system: Pichia kudriavzevii; experiment: Antifungal activity against Candida krusei 4946 assessed as inhibition of fungal growth incubated for 24 hrs by CLSI protocol based microbroth dilution method; type: functional
[5] = system: Nakaseomyces glabratus; experiment: Antifungal activity against Candida glabrata 537 assessed as inhibition of fungal growth incubated for 48 hrs by CLSI protocol based microbroth dilution method; type: functional
[6] = system: Cryptococcus neoformans; experiment: Antifungal activity against Cryptococcus neoformans H99 assessed as inhibition of fungal growth incubated for 72 hrs by CLSI protocol based microbroth dilution method; type: functional
[7] = system: Aspergillus fumigatus; experiment: Antifungal activity against Aspergillus fumigatus 7544 assessed as inhibition of fungal growth incubated for 48 hrs by CLSI protocol based microbroth dilution method; type: functional
[8] = system: [Candida] auris; experiment: Antifungal activity against fluconazole resistant Candida auris 887 assessed as inhibition of fungal growth incubated for 48 hrs by CLSI protocol based microbroth dilution method; type: functional; conditions: Candidozyma auris
[9] = system: [Candida] auris; experiment: Antifungal activity against fluconazole resistant Candida auris 888 assessed as inhibition of fungal growth incubated for 48 hrs by CLSI protocol based microbroth dilution method; type: functional; conditions: Candidozyma auris
[10] = system: [Candida] auris; experiment: Antifungal activity against fluconazole resistant Candida auris D12 assessed as inhibition of fungal growth incubated for 48 hrs by CLSI protocol based microbroth dilution method; type: functional; conditions: Candidozyma auris
[11] = system: [Candida] auris; experiment: Antifungal activity against fluconazole resistant Candida auris BS12372 assessed as inhibition of fungal growth incubated for 48 hrs by CLSI protocol based microbroth dilution method; type: functional; conditions: Candidozyma auris
[12] = system: [Candida] auris; experiment: Antifungal activity against fluconazole resistant Candida auris 789 assessed as inhibition of fungal growth incubated for 48 hrs by CLSI protocol based microbroth dilution method; type: functional; conditions: Candidozyma auris
[13] = system: [Candida] auris; experiment: Antifungal activity against fluconazole resistant Candida auris 791 assessed as inhibition of fungal growth incubated for 48 hrs by CLSI protocol based microbroth dilution method; type: functional; conditions: Candidozyma auris
[14] = system: Candida albicans; experiment: Antifungal activity against Candida albicans SC5314 assessed as inhibition of fungal growth at 0.0156 ug/ml incubated for 24 hrs by plate reader analysis; type: functional, organism-based; conditions: dose 0.0156 µg/ml
[15] = system: Cryptococcus neoformans; experiment: Antifungal activity against Cryptococcus neoformans H99 assessed as inhibition of fungal growth at 0.125 ug/ml incubated for 48 hrs by plate reader analysis; type: functional, organism-based; conditions: dose 0.125 µg/ml
[16] = system: Nakaseomyces glabratus; experiment: Antifungal activity against Candida glabrata 537 assessed as inhibition of fungal growth at 0.25 ug/ml incubated for 24 hrs by plate reader analysis; type: functional, organism-based; conditions: dose 0.25 µg/ml
[17] = system: Pichia kudriavzevii; experiment: Antifungal activity against Candida krusei 4946 assessed as inhibition of fungal growth at 0.125 ug/ml incubated for 24 hrs by plate reader analysis; type: functional, organism-based; conditions: dose 0.125 µg/ml
[18] = system: Candida tropicalis; experiment: Antifungal activity against Candida tropicalis 2718 assessed as inhibition of fungal growth at 32 ug/ml incubated for 24 hrs by plate reader analysis; type: functional, organism-based; conditions: dose 32.0 µg/ml
[19] = system: Candida albicans; experiment: Inhibition of biofilm formation in Candida albicans SC5314 incubated for 24 hrs by XTT reduction assay; type: functional, organism-based; conditions: dose 0.008-4 µg/ml
[20] = system: Candida albicans; experiment: Inhibition of biofilm formation in Candida albicans SC5314 at 0.008 ug/ml incubated for 24 hrs by XTT reduction assay relative to control; type: functional
[21] = Half-life in male ICR (CD-1) mouse at 5 mg/kg, iv by LC-MS/MS analysis; type: ADME, organism-based; conditions: in vivo
[22] = AUC (0 to t) in male ICR (CD-1) mouse at 5 mg/kg, iv by LC-MS/MS analysis; type: ADME, organism-based; conditions: in vivo
[23] = Clearance in male ICR (CD-1) mouse at 5 mg/kg, iv by LC-MS/MS analysis; type: ADME, organism-based; conditions: in vivo
[24] = MRT (0 to t) in male ICR (CD-1) mouse at 5 mg/kg, iv by LC-MS/MS analysis; type: ADME, organism-based; conditions: in vivo
[25] = Volume of distribution at steady state in male ICR (CD-1) mouse at 5 mg/kg, iv by LC-MS/MS analysis; type: ADME, organism-based; conditions: in vivo, read-out: Vdss
[26] = Cmax in male ICR (CD-1) mouse at 10 mg/kg, po by LC-MS/MS analysis; type: ADME, organism-based; conditions: in vivo
[27] = Tmax in male ICR (CD-1) mouse at 10 mg/kg, po by LC-MS/MS analysis; type: ADME, organism-based; conditions: in vivo
[28] = Half-life in male ICR (CD-1) mouse at 10 mg/kg, po by LC-MS/MS analysis; type: ADME, organism-based; conditions: in vivo
[29] = AUC (0 to t) in male ICR (CD-1) mouse at 10 mg/kg, po by LC-MS/MS analysis; type: ADME, organism-based; conditions: in vivo
[30] = MRT (0 to t) in male ICR (CD-1) mouse at 10 mg/kg, po by LC-MS/MS analysis; type: ADME, organism-based; conditions: in vivo
[31] = Oral bioavailability in male ICR (CD-1) mouse at 10 mg/kg by LC-MS//MS analysis; type: ADME, organism-based; conditions: in vivo
[32] = system: Candida albicans; experiment: Antifungal activity against Candida albicans SC5314 infected in ICR mouse model assessed as fungal burden in kidney at 1 mg/kg/day, po pre-infected with fungi for 2 hrs followed by compound administration and measured after 48 hrs (reference value: 3.89 Log10CFU/g); type: functional
[33] = system: Candida albicans; experiment: Antifungal activity against Candida albicans SC5314 infected in ICR mouse model assessed as fungal burden in kidney at 5 mg/kg/day, po pre-infected with fungi for 2 hrs followed by compound administration and measured after 48 hrs (reference value: 3.89 Log10CFU/g); type: functional
[34] = system: Candida albicans; experiment: Antifungal activity against Candida albicans SC5314 infected in ICR mouse model assessed as reduction in fungal burden in kidney pre-infected with fungi for 2 hrs followed by oral administration of compound and measured after 48 hrs; type: functional, organism-based; conditions: dose 1-5 mg/kg/day
[35] = system: Candida albicans; experiment: Antifungal activity against Candida albicans SC5314 infected in ICR mouse model assessed as median survival time at 1 mg/kg/day, po pre-infected with fungi for 2 hrs followed by compound administration and measured after 48 hrs (reference value: 3.5 days); type: functional
[36] = system: Candida albicans; experiment: Antifungal activity against Candida albicans SC5314 infected in ICR mouse model assessed as median survival time at 5 mg/kg/day, po pre-infected with fungi for 2 hrs followed by compound administration and measured after 48 hrs (reference value: 3.5 days); type: functional
[37] = system: Erythrocyte; experiment: Hemolytic activity in rabbit RBC assessed as hemolysis at 64 ug/ml incubated for 1 hrs by absorbance based assay; type: toxicity, cell-based, Oryctolagus cuniculus; conditions: dose 64 µg/ml
[38] = target: T1, Lanosterol 14-alpha demethylase (Candida albicans (strain SC5314 / ATCC MYA-2876) (Yeast), UniProt P10613); experiment: Inhibition of CYP51 in Candida albicans SC5314 assessed as decrease in ergosterol level at 0.008 ug/ml incubated for 8 hrs by GC-MS analysis; conditions: at 0.008 µg/mL
T1 sequence (P10613 whole entry): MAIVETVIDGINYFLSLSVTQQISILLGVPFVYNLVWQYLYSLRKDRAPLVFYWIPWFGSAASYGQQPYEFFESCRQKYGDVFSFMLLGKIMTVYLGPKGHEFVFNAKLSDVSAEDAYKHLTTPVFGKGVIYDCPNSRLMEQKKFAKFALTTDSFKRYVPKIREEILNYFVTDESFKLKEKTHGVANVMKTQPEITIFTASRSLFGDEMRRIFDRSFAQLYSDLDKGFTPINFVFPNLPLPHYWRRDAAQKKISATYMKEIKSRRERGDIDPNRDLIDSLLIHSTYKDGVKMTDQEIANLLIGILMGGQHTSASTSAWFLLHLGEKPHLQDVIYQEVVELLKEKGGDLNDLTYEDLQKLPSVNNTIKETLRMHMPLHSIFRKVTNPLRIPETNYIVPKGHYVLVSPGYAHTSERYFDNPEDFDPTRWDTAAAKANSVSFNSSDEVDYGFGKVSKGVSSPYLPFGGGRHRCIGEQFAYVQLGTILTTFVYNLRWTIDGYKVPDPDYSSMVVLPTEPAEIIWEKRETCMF

[39] = target: T1, Lanosterol 14-alpha demethylase; experiment: Inhibition of CYP51 in Candida albicans SC5314 assessed as increase in obtusifoliol level at 0.008 ug/ml incubated for 8 hrs by GC-MS analysis relative to control; set-up: scale not given: the % may be the effect or the level left; conditions: at 0.008 µg/mL
[40] = target: T1, Lanosterol 14-alpha demethylase; experiment: Inhibition of CYP51 in Candida albicans SC5314 assessed as increase in eburicol level at 0.008 ug/ml incubated for 8 hrs by GC-MS analysis relative to control; set-up: scale not given: the % may be the effect or the level left; conditions: at 0.008 µg/mL
[41] = system: Cell membrane; experiment: Disruption of cell membrane integrity in Candida albicans SC5314 assessed as increase in increase in red fluorescence at 0.5 ug/ml incubated for 8 hrs by PI staining based fluorescence microscopic analysis; conditions: dose 0.5 µg/ml
[42] = system: Candida albicans; experiment: Antifungal activity in Candida albicans SC5314 assessed as inhibition of fungal growth incubated for 4 days by induction of resistance assay; type: functional; conditions: SC5314, 96 h, time 4 day
[43] = system: Candida albicans; experiment: Antifungal activity in Candida albicans SC5314 assessed as inhibition of fungal growth incubated for 17 days by induction of resistance assay; type: functional; conditions: SC5314, 408 h, time 17 day

In the case of `C[C@@H](n1ccc2cc(Cl)ccc2c1=O)[C@](O)(Cn1cnnn1)c1ccc(F)cc1F`, the MIC50 [1] was less than 0.008 µg/mL, the MIC50 [2] was less than 0.008 µg/mL and the MIC50 [3] was less than 0.008 µg/mL. The MIC50 [4] was 0.031 µg/mL (≈ 0.0718 µM), the MIC50 [5] was less than 0.008 µg/mL and the MIC50 [6] was less than 0.008 µg/mL. The MIC50 [7] was 2 µg/mL (≈ 4.63 µM), the MIC50 [8] was 0.5 µg/mL (≈ 1.16 µM) and the MIC50 [9] was 0.25 µg/mL (≈ 0.579 µM). The MIC50 [10] was less than 0.125 µg/mL, the MIC50 [11] was less than 0.125 µg/mL and the MIC50 [12] was 0.5 µg/mL (≈ 1.16 µM). The MIC50 [13] was 1 µg/mL (≈ 2.32 µM), the Activity [14] was “Active” and the Activity [15] was “Active”. The Activity [16] was “Active”, the Activity [17] was “Active” and the Activity [18] was “Active”. The inhibition [19] was “Dose-Dependent Effect”, the inhibition at 0.008 µg/mL [20] was greater than 70% and the half-life [21] was 4.28 h. The AUC(0-t) [22] was 18500 ng·h/mL, the clearance [23] was 3.27 mL/min/kg and the MRT last [24] was 3.27 h. For the same compound, the Vd [25] was 1.23 L/kg, the Cmax [26] was 2630 ng/mL and the Tmax [27] was 2 h. The half-life [28] was 6.71 h, the AUC(0-t) [29] was 13600 ng·h/mL and the MRT last [30] was 3.66 h. For the same compound, the bioavailability [31] was 36.8%, the Activity [32] was 2.92 log10CFU/g and the Activity [33] was 2.25 log10CFU/g. For the same compound, the Activity [34] was “Dose-Dependent Effect”, the MST [35] was 8.5 days and the MST [36] was 10 days. For the same compound, the Activity [37] was “Non-Toxic”, the “inhibition (INH)” value [38] was “Active” and the Activity [39] was 19.33%. For the same compound, the Activity [40] was 24.85%, the Activity [41] was “Active” and the MIC [42] was 0.016 µg/mL (≈ 0.0371 µM). For the same compound, the MIC [43] was 0.125 µg/mL (≈ 0.289 µM).

From ChEMBL document CHEMBL5543144, “Discovery of a Novel Potent Tetrazole Antifungal Candidate with High Selectivity and Broad Spectrum” (J Med Chem, 2024)
